What all share (assay): DTP human tumour cell line panel, 48 h
The subject of assay [1] is T47D.
In assay [2] the test system is KM12.
Assay [3] has as its system COLO 205.
For assay [4], the system named is CCRF-CEM.
The test system of assay [5] is SR.
Assay [6] has as its system SF-268.
Assay [7] deals with PC-3.
The subject of assay [8] is ACHN.
The test system of assay [9] is RXF 393.
The test system of assay [10] is UACC-62.
The test system of assay [11] is MCF7.
Assay [12] has as its system U-251.
Assay [13] has as its system NCI-H522.
For assay [14], the system named is OVCAR-8.
For assay [15], the system named is M14.
Assay [16] relates to SF-539.
Assay [17] relates to EKVX.
Assay [18] has as its system OVCAR-4.
Assay [19] relates to HOP-92.
Assay [20] has as its system SNB-75.

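Each compound was tested at five concentrations against cells in 96-well plates for 48 hours. GI50 = concentration required for 50% inhibition of growth.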 Calls of active or inactive are those of the source. No stated cut-off is given here; in the data, active = GI50 up to about 1.1 µM and inactive = higher. Some results are limits rather than exact numbers.

As usually defined, the GI50 is the concentration that inhibits growth by half.

As to `COc1ccc(C2C=C(c3ccccc3)Nc3nnnn32)cc1` (stereo not given), the GI50 is 19 µM (inactive) in [1]; 15.8 µM (inactive) in assay [2]; > 100 µM (inactive) in assay [3]; > 100 µM (inactive) in assay [4]; 26.4 µM (inactive) in [5]; 44.9 µM (inactive) in assay [6]. For the same molecule, the GI50 in assay [7] is 49 µM (inactive); in assay [8], 24.1 µM (inactive); in assay [9] it was 20.3 µM (inactive); in assay [10], 50.4 µM (inactive); in assay [11] it was 20.2 µM (inactive); in [12], 19.7 µM (inactive). The GI50 in assay [13] is 17.9 µM (inactive); in assay [14] it was 47.4 µM (inactive); in assay [15] it was 68.2 µM (inactive); in assay [16], 23.7 µM (inactive).

Turning to `Cn1ncc2c(Nc3cccc(Cl)c3)nc(Nc3cccc(Cl)c3)nc21`, the GI50 was 10.2 µM (inactive) in assay [1]; 14.5 µM (inactive) in assay [17]; 11.9 µM (inactive) in [18]; 4.9 µM (inactive) in assay [2]; > 24.7 µM (inactive) in assay [3]; 1.15 µM (inactive) in assay [4]. Further, the GI50 in assay [19] is 10.9 µM (inactive); in assay [20], 7.93 µM (inactive); in assay [6], 14.1 µM (inactive); in assay [7], 8.24 µM (inactive); in assay [8] it was 10.5 µM (inactive); in [9], 3.48 µM (inactive). For the same molecule, the GI50 in assay [10] is 13.7 µM (inactive); in [11], 4.68 µM (inactive); in [12], 8.04 µM (inactive); in assay [13], 8.93 µM (inactive); in assay [14] it was 10.9 µM (inactive); in assay [15] it was 6.7 µM (inactive). Also, the GI50 in [16] was 19.9 µM (inactive).

With `CCC1(CC)C(=O)N(C(=O)c2ccc(Cl)cc2)N(C(=O)c2ccccc2Cl)C1=O`, the GI50 is 62.7 µM (inactive) in assay [1]; 4.58 µM (inactive) in [17]; > 100 µM (inactive) in assay [18]; 52.8 µM (inactive) in assay [2]; > 100 µM (inactive) in [3]; 40.8 µM (inactive) in assay [4]. The GI50 was 34.9 µM (inactive) in [5]; 16.1 µM (inactive) in [20]; 35.4 µM (inactive) in [6]; > 100 µM (inactive) in [7]; 36.1 µM (inactive) in [8]; > 100 µM (inactive) in assay [9]. For the same molecule, the GI50 in assay [10] was 85.3 µM (inactive); in [11], 43.1 µM (inactive); in assay [12], 33.3 µM (inactive); in assay [13], 14.4 µM (inactive); in assay [14] it was 89.9 µM (inactive); in assay [15], > 100 µM (inactive).

`N#CCCOc1cccc(C2(N3CCCCC3)CCCCC2)c1`: the GI50 in assay [1], in assay [17], in assay [18], in assay [2], in assay [3] and in assay [4] was > 100 µM (inactive) throughout. Further, the GI50 in assay [5], in [6], in assay [7], in assay [8], in [10] and in [11] was > 100 µM (inactive) in each case. Besides, the GI50 in assay [12], in assay [13], in assay [14], in [15] and in assay [16] was > 100 µM (inactive) in each case.

For the molecule `CC(=O)C1(/N=N/c2ccc(S(N)(=O)=O)cc2)CCOC1=O` (stereo not given), the GI50 in [1], in [17], in [18], in assay [2], in [3] and in [4] was > 100 µM (inactive) in each case. Besides, the GI50 in [19], in assay [20], in [6], in [7], in assay [8] and in assay [9] was > 100 µM (inactive) each time. Besides, the GI50 in assay [10], in assay [11], in assay [12], in assay [13], in [14] and in assay [15] was > 100 µM (inactive) each time. Further, the GI50 in assay [16] is > 100 µM (inactive).

Regarding `Cc1cc(C)c2c(=O)n(CN3CCN(c4ccccc4)CC3)sc2n1`, the GI50 in [1] was 15 µM (inactive); in assay [17], 29.8 µM (inactive); in [18] it was 54 µM (inactive); in assay [2] it was > 100 µM (inactive); in assay [3], 19.5 µM (inactive); in assay [4] it was 9.59 µM (inactive). Moreover, the GI50 in [19] was > 100 µM (inactive); in assay [20], 15.8 µM (inactive); in assay [6], > 100 µM (inactive); in assay [7] it was 19.4 µM (inactive); in [8] it was 20.1 µM (inactive); in [9], 12.6 µM (inactive). Moreover, the GI50 in [10] was 53.2 µM (inactive); in [11], 29.7 µM (inactive); in assay [12] it was 23.4 µM (inactive); in assay [13] it was 14.4 µM (inactive); in assay [14], 35.4 µM (inactive); in [15] it was 24.5 µM (inactive). The GI50 in assay [16] is 18.6 µM (inactive).

For `COC1/C=C(C)/C=C/C(C)/C=C/C(=O)OC(/C(C)=C/C=C(\C)CNC(=O)[C@H](CO)NC=O)C(C)/C=C/C=C/C(OC)CC/C=C(C)/C=C/C1` (stereo not given in full), the 50% growth inhibitory concentration (GI50) in assay [1] is 0.0525 µM (active); in assay [17], 0.139 µM (active); in [18], 0.491 µM (active); in assay [2], 0.0195 µM (active); in assay [4] it was 0.0474 µM (active); in assay [19], 0.0447 µM (active). The GI50 was > 1 µM (active) in assay [20]; 0.113 µM (active) in assay [6]; 0.0264 µM (active) in assay [7]; 0.0474 µM (active) in [8]; 0.158 µM (active) in assay [9]; 0.0251 µM (active) in assay [10]. For the same molecule, the 50% growth inhibitory concentration (GI50) in assay [11] was 0.052 µM (active); in [12] it was 0.0673 µM (active); in assay [14], 0.0399 µM (active); in [15], 0.0183 µM (active); in assay [16], 0.0281 µM (active).

With `C=C(C)OCOCCOC`, the GI50 in [1], in assay [17], in assay [2], in assay [3], in assay [4] and in [5] was > 100 µM (inactive) in each case. For the same molecule, the GI50 in [20], in assay [6], in assay [7], in [8], in assay [10] and in [11] was > 100 µM (inactive) throughout. For the same molecule, the GI50 in assay [12], in assay [13], in assay [14], in assay [15] and in assay [16] was > 100 µM (inactive) in each case.

As for `COc1ccc2cc(CNCCCCCCNCc3ccc4cc(OC)ccc4c3)ccc2c1`, the 50% growth inhibitory concentration (GI50) in assay [1] is 0.452 µM (active); in assay [17] it was 1.39 µM (inactive); in [2], 0.221 µM (active); in [3], 0.154 µM (active); in assay [4] it was 0.153 µM (active); in [5], 0.184 µM (active). Also, the 50% growth inhibitory concentration (GI50) in assay [20] is 0.815 µM (active); in assay [6] it was 0.565 µM (active); in [7], 0.471 µM (active); in assay [8], 1.57 µM (inactive); in assay [9] it was 1.52 µM (inactive); in assay [10], 1.46 µM (inactive). Besides, the GI50 in assay [11] was 0.319 µM (active); in assay [12] it was 0.231 µM (active); in assay [13] it was 0.64 µM (active); in assay [14], 0.531 µM (active); in assay [15], 0.169 µM (active); in [16], 1.51 µM (inactive).

On to `CCN1CCCc2cc3c(C(F)(F)F)cc(=O)oc3cc21`, for which the GI50 in assay [1] is 65.5 µM (inactive); in assay [17], 8.11 µM (inactive); in [18] it was > 100 µM (inactive); in assay [2], > 100 µM (inactive); in [3], 63.8 µM (inactive); in assay [19], 33.3 µM (inactive). Besides, the GI50 in assay [20] was 42.5 µM (inactive); in assay [6] it was > 100 µM (inactive); in assay [7], 20.7 µM (inactive); in [8], 87.9 µM (inactive); in [9] it was 20.6 µM (inactive); in assay [10] it was > 100 µM (inactive). Moreover, the GI50 was 56.2 µM (inactive) in assay [11]; > 100 µM (inactive) in assay [12]; 55.5 µM (inactive) in [13]; 91.6 µM (inactive) in [14]; > 100 µM (inactive) in assay [15]; > 100 µM (inactive) in assay [16].

Take `CN(C)CCCN1C(=O)N(CCCN(C)C)c2c3cc(O)ccc3nc3c([N+](=O)[O-])ccc1c23`: the GI50 in assay [1] was 30.3 µM (inactive); in [18], 2.29 µM (inactive); in assay [2] it was 14.9 µM (inactive); in assay [3] it was 13.7 µM (inactive); in assay [19] it was 4.82 µM (inactive); in [20] it was 29.3 µM (inactive). The GI50 in assay [6] is 10.3 µM (inactive); in [7], 8.24 µM (inactive); in assay [8], 16.6 µM (inactive); in assay [9], 11.9 µM (inactive); in assay [10], 11.9 µM (inactive); in [11], 11.3 µM (inactive). Besides, the GI50 in assay [12] is 14.2 µM (inactive); in assay [13], 6.92 µM (inactive); in assay [14], 15.8 µM (inactive); in assay [15], 32.7 µM (inactive); in [16], 16 µM (inactive).

The record behind these values is ChEMBL document CHEMBL1201862, “PubChem BioAssay data set” (2004).
